In patent publication US8735406B2, “8-oxodihydropurine derivative” (Dainippon Sumitomo Pharma Co., Ltd., priority 2009, dated 2014):
Where two headings read alike, the source gives them in different places.

Biological target: T1, FAAH (Rattus norvegicus, UniProt P97612)
T1 construct: Preparation of Rat Brain Membranes Preparations (FAAH Enzyme Solution); from tissue; host or cells: rat cerebrum (brain membrane preparation)
T1 sequence (P97612 1-579): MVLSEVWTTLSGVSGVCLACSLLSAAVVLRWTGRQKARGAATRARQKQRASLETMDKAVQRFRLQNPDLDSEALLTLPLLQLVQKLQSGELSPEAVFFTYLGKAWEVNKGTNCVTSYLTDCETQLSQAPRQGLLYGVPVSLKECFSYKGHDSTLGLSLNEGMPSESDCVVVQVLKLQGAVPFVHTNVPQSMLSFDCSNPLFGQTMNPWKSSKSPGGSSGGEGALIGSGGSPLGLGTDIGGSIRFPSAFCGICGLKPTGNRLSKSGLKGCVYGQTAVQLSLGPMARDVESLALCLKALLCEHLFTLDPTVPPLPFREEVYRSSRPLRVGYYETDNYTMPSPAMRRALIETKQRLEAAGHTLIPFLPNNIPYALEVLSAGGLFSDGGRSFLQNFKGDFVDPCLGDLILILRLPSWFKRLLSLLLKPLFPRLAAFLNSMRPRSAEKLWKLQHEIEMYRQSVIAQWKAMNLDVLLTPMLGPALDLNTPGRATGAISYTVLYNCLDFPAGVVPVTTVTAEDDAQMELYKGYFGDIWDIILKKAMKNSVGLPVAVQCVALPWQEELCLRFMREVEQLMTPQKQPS
Assay: Determination of FAAH inhibitory activity in rat (rat brain membrane preparations, [3H]-anandamide hydrolysis)
Assay type: biochemical
Procedure, shortened: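 Rat cerebrum membranes (100 μg/mL protein) preincubated 10 min at 37 °C with compound (1% DMSO) in pH 7.6 Tris buffer with 1.5% BSA. Substrate 2 nM [3H]-anandamide plus 2 μM anandamide added for 10 min at 37 °C. [3H]-ethanolamine in the aqueous phase after chloroform/methanol extraction was scintillation counted; IC50 over 0.1 nM–1 μM.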

[1] = rat brain membrane preparations, 100 nM test substance, read-out: FAAH Inhibition, Inhibition Rate at 100 nM
[2] = rat brain membrane preparations, test substance 0.1 nM to 1 μM, read-out: FAAH Inhibition IC50
[3] = at 100 nM, rat brain membrane preparations, read-out: FAAH Inhibition Inhibition Rate at 100 nM
[4] = rat brain membrane preparations, read-out: FAAH Inhibition IC50

SMILES	inhibition at 0.1 µM [1] [%]	IC50 [2] [µM]	also measured
COc1cccc(-c2ncc3c(n2)n(C)c(=O)n3C(=O)N(C)CCOc2cccc(Cl)c2)c1 [Example 90, N-[2-(3-Chlorophenoxy)ethyl]-2-(3-methoxyphenyl)-N,9-dimethyl-8-oxo-8,9-dihydro-7H-purine-7-carboxamide]	105	0.002	
O=C(N1CCCC1)n1c(=O)n(CCO)c2nc(-c3ccccc3)ncc21 [Example 302, 9-(2-hydroxyethyl)-2-phenyl-7-(pyrrolidin-1-ylcarbonyl)-7,9-dihydro-8H-purine-8-one]	94	0.046	
COc1cccc(-c2ncc3c(n2)n(C(=O)N(C)C)c(=O)n3C)c1 [Example 322, 2-(3-Methoxyphenyl)-N,N,7-trimethyl-8-oxo-7,8-dihydro-9H-purine-9-carboxamide]	45		
Cn1c(=O)n(C(=O)N2CCC2)c2nc(COc3ccccc3Cl)ncc21 [Example 427]	92	0.019	
COCCc1ncc2c(n1)n(C)c(=O)n2C(=O)N1CC(c2cccc(F)c2)C1 [compound 391]	105	0.004	
Cn1c(=O)n(C(=O)N2CCC2)c2nc(COc3ccc(Cl)cc3)ncc21 [Example 428]	123	0.01	
CCn1c(=O)n(C(=O)N(C)C)c2nc(CCc3ccc(F)cc3)ncc21 [Example 645, 7-Ethyl-2-[2-(4-fluorophenyl)ethyl]-N,N-dimethyl-8-oxo-7,8-dihydro-9H-purine-9-carboxamide]			inhibition at 0.1 µM [3]: 98%; IC50 [4]: 0.02 µM
Cc1cc(C)c(CCc2ncc3c(n2)n(C(=O)N(C)C)c(=O)n3C)c(C)c1 [compound 511]	95	0.013	
Cn1c(=O)n(C(=O)N2CCCC2Cc2ccccc2)c2cnc(-c3ccccc3)nc21 (centres unmarked) [Example 44]		> 0.1	inhibition at 1 µM (rat brain membrane preparations, 1000 nM test substance (stated in the cell), read-out: FAAH Inhibition, Inhibition Rate (1000 nM)): 30%
CN(CCc1ccc(Cl)cc1)C(=O)n1c(=O)n(C)c2nc(C3CC3)ncc21 [Example 153, N-[2-(4-Chlorophenyl)ethyl]-2-cyclopropyl-N,9-dimethyl-8-oxo-8,9-dihydro-7H-purine-7-carboxamide]	99	0.027	
COc1cccc(-c2ncc3c(n2)n(C)c(=O)n3C(=O)N2CCN(c3ccccc3)CC2)c1 [Example 140, 2-(3-Methoxyphenyl)-9-methyl-7-[(4-phenylpiperazin-1-yl)carbonyl]-7,9-dihydro-8H-purine-8-one]	99	0.007	
CN(C)C(=O)n1c(=O)n(C)c2cnc(CCCOc3ccc(F)cc3)nc21 [Example 398]	84	0.009	
COCCCc1ncc2c(n1)n(C)c(=O)n2C(=O)N1CC(c2ccccc2)C1 [Example 383]	65	0.014	
CCN(C)C(=O)n1c(=O)n(C)c2cnc(-c3ccc(OC(F)F)cc3)nc21 [compound 345]	101	0.009	
CN(C)C(=O)n1c(=O)n(C)c2cnc(CCc3cccc(C(F)(F)F)c3)nc21 [compound 539]	92	0.017	
Cc1ccc(CCc2ncc3c(n2)n(C(=O)N(C)C)c(=O)n3C)cc1C [compound 510]	102	0.011	
Cn1c(=O)n(C(=O)N2CCC2)c2cnc(COc3cccc(Cl)c3)nc21 [compound 407]	70	0.092	
COCc1ncc2c(n1)n(C)c(=O)n2C(=O)N1CC(c2ccc(F)cc2F)C1 [Example 454, 7-{[3-(2,4-Difluorophenyl)azetidin-1-yl]carbonyl}-2-(methoxymethyl)-9-methyl-7,9-dihydro-8H-purine-8-one]	89	0.006	
Cc1cc(C)cc(CCc2ncc3c(n2)n(C(=O)N(C)C)c(=O)n3C)c1 [compound 514]	102	0.01	
Cn1c(=O)n(C(=O)N2CCCC2)c2cnc(-c3ccc(OC(F)(F)F)cc3)nc21 [compound 177]	78	0.058	

SMILES	inhibition at 0.1 µM [1] [%]	IC50 [2] [µM]	also measured
CC(C)c1ccc(CCc2ncc3c(n2)n(C(=O)N(C)C)c(=O)n3C)cc1 [compound 502]	104	0.01	
CCc1ccccc1CCc1ncc2c(n1)n(C(=O)N(C)C)c(=O)n2C [compound 515]	100	0.01	
COc1cccc(-c2ncc3c(n2)n(C)c(=O)n3C(=O)N(C)Cc2cccc(Cl)c2)c1 [Example 79, N-(3-Chlorobenzyl)-2-(3-methoxyphenyl)-N,9-dimethyl-8-oxo-8,9-dihydro-7H-purine-7-carboxamide]	87	0.051	
CCCn1c(=O)n(C(=O)N(C)C)c2nc(CCc3cccc(F)c3)ncc21 [Example 647, 2-[2-(3-Fluorophenyl)ethyl]-N,N-dimethyl-8-oxo-7-propyl-7,8-dihydro-9H-purine-9-carboxamide]			inhibition at 0.1 µM [3]: 100%; IC50 [4]: 0.01 µM
COCc1ncc2c(n1)n(C)c(=O)n2C(=O)N1CC[C@H](Oc2ccccc2F)C1 [Example 483, 7-{[(3S)-3-(2-Fluorophenoxy)pyrrolidin-1-yl]carbonyl}-2-(methoxymethyl)-9-methyl-7,9-dihydro-8H-purine-8-one]	110	0.01	
CCOc1ccc(C2CN(C(=O)n3c(=O)n(C)c4nc(CCOC)ncc43)C2)cc1 [compound 392]	105	0.011	
CN(C)C(=O)n1c(=O)n(C)c2cnc(CCc3cccc(F)c3F)nc21 [compound 550]	87	0.02	
COc1cccc(-c2ncc3c(n2)n(C)c(=O)n3C(=O)N(C)CCc2cccc(Cl)c2)c1 [Example 76, N-[2-(3-Chlorophenyl)ethyl]-2-(3-methoxyphenyl)-N,9-dimethyl-8-oxo-8,9-dihydro-7H-purine-7-carboxamide]			IC50 (FAAH Inhibition IC50, rat brain membrane preparations, test substance 0.1 nM to 1 μM): 0.003 µM; inhibition at 0.1 µM (read-out: FAAH Inhibition, Inhibition Rate at 100 nM): 102%
Cn1c(=O)n(C(=O)N2CCCC2)c2nc(CCc3ccc(C(F)(F)F)cc3)ncc21 [Example 312, 7-methyl-9-(pyrrolidin-1-ylcarbonyl)-2-{2-[4-(trifluoromethyl)phenyl]ethyl}-7,9-dihydro-8H-purine-8-one]	99	0.008	
CN(C)C(=O)n1c(=O)n(C)c2cnc(CCC3CCCCC3)nc21 [Example 615]			inhibition at 0.1 µM [3]: 96%; IC50 [4]: 0.01 µM
CC(=O)c1ccc(-c2ncc3c(n2)n(C)c(=O)n3C(=O)N2CCCC2)cc1 [compound 184]	102	0.004	
CN(C)C(=O)n1c(=O)n(C)c2cnc(CCc3ccc(OCC(F)(F)F)cc3)nc21 [Example 553, N,N,7-Trimethyl-8-oxo-2-{2-[4-(2,2,2-trifluoroethoxy)phenyl]ethyl}-7,8-dihydro-9H-purine-9-carboxamide]	97	0.009	
COc1cccc(-c2ncc3c(n2)n(C)c(=O)n3C(=O)N2CC=C(/C=C/c3ccc(Cl)cc3)CC2)c1 [Example 94, 7-({4-[(E)-2-(4-Chlorophenyl)ethenyl]-3,6-dihydropyridin-1(2H)-yl}carbonyl)-2-(3-methoxyphenyl)-9-methyl-7,9-dihydro-8H-purine-8-one]	101	0.007	
Cc1cc(CCc2ncc3c(n2)n(C(=O)N(C)C)c(=O)n3C)ccc1F [compound 509]	99	0.01	
Cn1c(=O)n(C(=O)N2CCCC2)c2nc(-c3cccc(OC(F)(F)F)c3)ncc21 [Example 236, 7-Methyl-9-(pyrrolidin-1-ylcarbonyl)-2-[3-(trifluoromethoxy)phenyl]-7,9-dihydro-8H-purine-8-one]	100	0.006	
CN(CCc1ccc(Cl)cc1)C(=O)n1c(=O)n(C)c2nc(-c3cccnc3)ncc21 [Example 145, N-[2-(4-Chlorophenyl)ethyl]-N,9-dimethyl-8-oxo-2-(pyridin-3-yl)-8,9-dihydro-7H-purine-7-carboxamide]	100	< 0.001	
CN(C)C(=O)n1c(=O)n(C)c2cnc(-c3cccc(OCc4ccccc4)c3)nc21 [compound 327]	23	0.109	
COc1cccc(OCc2ncc3c(n2)n(C)c(=O)n3C(=O)N2CCC2)c1 [Example 404, 7-(Azetidin-1-ylcarbonyl)-2-[(3-methoxyphenoxy)methyl]-9-methyl-7,9-dihydro-8H-purine-8-one]	96	0.01	
Cn1c(=O)n(C(=O)N2CCCC2)c2cnc(Cc3ccc(-c4ccccc4)cc3)nc21 [Example 265, 2-(Biphenyl-4-ylmethyl)-9-methyl-7-(pyrrolidin-1-ylcarbonyl)-7,9-dihydro-8H-purine-8-one]	98	0.009	
